Reference: ChEMBL document CHEMBL5338745, “Factor XIa Inhibitors in Anticoagulation Therapy: Recent Advances and Perspectives” (J Med Chem, 2023)

Columns and labels:
[1] = molecular target: T1, Coagulation factor XI (Homo sapiens, UniProt P03951); assay: Inhibition of FXIa (unknown origin)
[2] = Oral bioavailability in Sprague-Dawley rat at 3 mg/kg; type: ADME, organism-based; details: in vivo
[3] = Half life in Sprague-Dawley rat at 0.5 mg/kg, iv; type: ADME, organism-based; details: in vivo
[4] = Clearance in Sprague-Dawley rat at 0.5 mg/kg, iv; type: ADME, organism-based; details: in vivo
[5] = tested on: Plasma; assay: Anticoagulant activity in human plasma assessed as concentration required to double the activated partial thromboplastin time; type: functional
[6] = Clearance in rat at 1 mg/kg, iv; type: ADME, organism-based; details: in vivo
[7] = tested on: Plasma; assay: Anticoagulant activity in human plasma assessed as concentration required to 1.5 times activation of partial thromboplastin time; type: functional
[8] = Oral bioavailability in rat at 1.5 mg/kg; type: ADME, organism-based; details: in vivo
[9] = Half life in mouse; type: ADME, organism-based; details: in vivo
[10] = Selectivity index, ratio IC50 for FXIa (unknown origin) to IC50 for FD (unknown origin)
[11] = in vivo; details: rhesus monkey, iv, 3 mg/kg
[12] = in vivo; details: rat, iv, 0.3 mg/kg
[13] = molecular target: Plasma kallikrein (Homo sapiens, UniProt P03952)
[14] = molecular target: T1, Coagulation factor XI; assay: Inhibition of FXIa (unknown origin) relative to control; details: concentration not given here
[15] = Metabolic stability in dog liver microsomes assessed as half life; type: ADME, Canis lupus familiaris, Microsome
[16] = Oral bioavailability in dog; type: ADME, organism-based, Canis lupus familiaris; details: in vivo
[17] = Plasma protein binding in human at 10 pM incubated for 4 hrs by HPLC-MS/MS analysis; type: ADME, cell-free; details: read-out: PPB
[18] = Oral bioavailability in cynomolgus monkey at 10 mg/kg, […]; type: ADME, organism-based, Macaca fascicularis; details: in vivo
[19] = Half life in cynomolgus monkey at 1 mg/kg, iv; type: ADME, organism-based, Macaca fascicularis; details: in vivo
[20] = Clearance in cynomolgus monkey at 1 mg/kg, iv; type: ADME, organism-based, Macaca fascicularis; details: in vivo
[21] = molecular target: Trypsin (Homo sapiens, UniProt P07477+P07478+P35030); assay: Inhibition of human trypsin; type: protein assay
[22] = molecular target: T1, Coagulation factor XI; assay: Inhibition of human FXIa
[23] = molecular target: Prothrombin (Homo sapiens, UniProt P00734); assay: Inhibition of human thrombin
[24] = Half life in human at 0.6 mg/kg, iv administered for 5 days; type: ADME, organism-based; details: in vivo, time 5 day

T1 sequence (P03951 19-387 limits assumed): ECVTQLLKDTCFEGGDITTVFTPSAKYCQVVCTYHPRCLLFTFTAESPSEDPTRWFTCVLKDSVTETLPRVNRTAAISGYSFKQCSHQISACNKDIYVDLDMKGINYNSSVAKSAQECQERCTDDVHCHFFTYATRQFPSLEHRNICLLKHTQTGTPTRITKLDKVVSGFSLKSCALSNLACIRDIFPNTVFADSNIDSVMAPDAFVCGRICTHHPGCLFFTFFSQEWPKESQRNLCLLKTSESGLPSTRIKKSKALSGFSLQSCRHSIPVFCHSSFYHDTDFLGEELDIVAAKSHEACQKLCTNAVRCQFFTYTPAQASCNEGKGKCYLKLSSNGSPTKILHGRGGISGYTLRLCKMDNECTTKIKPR
T1 sequence (P03951 388-625 limits assumed): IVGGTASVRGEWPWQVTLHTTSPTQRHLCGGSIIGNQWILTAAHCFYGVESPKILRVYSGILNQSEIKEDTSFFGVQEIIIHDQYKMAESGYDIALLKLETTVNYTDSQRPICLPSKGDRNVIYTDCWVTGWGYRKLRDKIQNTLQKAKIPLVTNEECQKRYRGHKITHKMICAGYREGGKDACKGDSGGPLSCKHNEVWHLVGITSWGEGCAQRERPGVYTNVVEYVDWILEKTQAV
Chain of Plasma kallikrein (P03952 20-390 limits assumed): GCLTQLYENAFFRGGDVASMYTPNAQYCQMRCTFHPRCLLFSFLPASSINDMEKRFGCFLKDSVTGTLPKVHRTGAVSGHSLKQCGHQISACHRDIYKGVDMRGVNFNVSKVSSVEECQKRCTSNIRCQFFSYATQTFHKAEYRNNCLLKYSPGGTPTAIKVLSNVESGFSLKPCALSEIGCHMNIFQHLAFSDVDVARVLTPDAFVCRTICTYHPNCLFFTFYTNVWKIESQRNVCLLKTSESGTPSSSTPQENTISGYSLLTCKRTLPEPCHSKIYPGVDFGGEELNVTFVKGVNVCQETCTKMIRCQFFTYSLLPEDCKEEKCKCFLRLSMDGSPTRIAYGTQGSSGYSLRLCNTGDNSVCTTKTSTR
Chain of Plasma kallikrein (P03952 391-638 limits assumed): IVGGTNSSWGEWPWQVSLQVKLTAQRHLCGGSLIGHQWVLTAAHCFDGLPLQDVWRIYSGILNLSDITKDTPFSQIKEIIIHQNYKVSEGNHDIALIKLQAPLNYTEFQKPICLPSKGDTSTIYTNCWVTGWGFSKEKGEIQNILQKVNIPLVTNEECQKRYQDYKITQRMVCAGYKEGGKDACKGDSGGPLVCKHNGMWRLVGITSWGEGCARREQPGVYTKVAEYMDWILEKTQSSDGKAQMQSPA

COc1cn(C(Cc2ccccc2)c2nc3cc(C(=O)O)ccc3[nH]2)c(=O)cc1-c1cc(Cl)ccc1-n1cnnn1 (configuration not stated)
IC50 [1]: 3 nM

C[C@@H]1CCC[C@H](c2ccc(-c3cc(Cl)ccc3-n3cc(Cl)nn3)oc2=O)c2cc(ccn2)-c2c(cnn2C(F)F)NC1=O
IC50 [1]: 3.9 nM | bioavailability [2]: 37.1% | half-life [3]: 1 h | clearance [4]: 5.65 mL/min/kg | EC [5]: 0.87 µM

O=C(O)c1ccc(NC(=O)[C@H](CC2CC2)c2ccc(-c3c(C(F)F)ccc(Cl)c3F)c[n+]2[O-])cc1 (mixture of isomers)
clearance [6]: 1.9 mL/min/kg | EC [7]: 0.61 µM | bioavailability [8]: 89%

CC(C)c1cc(CCN2CCc3cccc(C(=O)O)c32)cc(-c2ccc3c(c2)[C@H](N)CO3)c1
half-life [9]: 9 h | Ratio IC50 [10]: 700

CC[C@@H](C(=O)Nc1ccc(C(N)=O)c(F)c1)n1cc(OC)c(-c2cc(Cl)ccc2-n2cc(Cl)nn2)cc1=O
clearance [11]: 5.5 mL/min/kg | clearance [12]: 13.3 mL/min/kg

C[C@H]1COc2cn([C@@H](CC3CCCCO3)C(=O)Nc3ccc(C(N)=O)cc3)c(=O)cc2-c2c(ccc(Cl)c2F)C1 (some centres not stated)
IC50 [1]: 1.7 nM | IC50 [13]: 60 nM

CC[C@@H](NC(=O)N1C(=O)[C@H](Cc2ccnc(N)c2)[C@H]1C(=O)O)c1ccccc1
IC50 [1]: < 10 nM

Cc1ccc(C(=O)Nc2ccc(CP(=O)(O)O)cc2CP(=O)(O)O)cc1NC(=O)c1cccc(NC(=O)Nc2cccc(C(=O)Nc3cc(C(=O)Nc4ccc(CP(=O)(O)O)cc4CP(=O)(O)O)ccc3C)c2)c1
inhibition [14]: 68%

O=C(OC[C@H]1O[C@@H](OC(=O)c2cc(OS(=O)(=O)O)cc(OS(=O)(=O)O)c2)[C@H](OC(=O)c2cc(OS(=O)(=O)O)cc(OS(=O)(=O)O)c2)[C@@H](OC(=O)c2cc(OS(=O)(=O)O)cc(OS(=O)(=O)O)c2)[C@@H]1OC(=O)c1cc(OS(=O)(=O)O)cc(OS(=O)(=O)O)c1)c1cc(OS(=O)(=O)O)cc(OS(=O)(=O)O)c1
IC50 [1]: 1400 nM

CC[C@@H](C(=O)Nc1ccc(C(N)=O)c(F)c1)n1cc(OC)c(-c2cc(Cl)ccc2-n2cc(C(F)(F)F)nn2)cc1=O
clearance [11]: 2 mL/min/kg | clearance [12]: 13.8 mL/min/kg

Nc1ccc(-c2cnc(Cn3c4c(c(-c5cc(Cl)ccc5-n5cnnn5)cc3=O)OCC4)[nH]2)c(F)n1
IC50 [1]: 1.6 nM

CC[C@@H](NC(=O)N1C(=O)[C@H](Cc2ccnc(N)c2)[C@H]1C(=O)N(C)c1nccn1C)c1ccccc1
half-life [15]: 2.02 h | IC50 [1]: < 10 nM | bioavailability [16]: > 33% | fraction unbound at 4 h, 1e-05 µM [17]: 0.5

O=C(O)c1ccc(NC(=O)[C@H](Cc2ccccc2)n2cnc(-c3cc(Cl)ccc3-n3cc(Cl)nn3)cc2=O)cc1
IC50 [1]: 2.5 nM | IC50 [13]: 189 nM

[2H]C([2H])([2H])n1ncc2c1-c1ccnc(c1)[C@@H](c1coc(-c3cc(Cl)ccc3-n3cc(Cl)nn3)cc1=O)CCC[C@@H](C)C(=O)N2
IC50 [1]: 6.1 nM | bioavailability [18]: 36.8% | half-life [19]: 1.05 h | EC [5]: 2.7 µM | clearance [20]: 8.6 mL/min/kg

Nc1ccc(-c2nc([C@H]3CCc4cc(-c5cc(Cl)ccc5-n5cnnn5)cc(=O)n43)c(F)[nH]2)c(F)n1 [ONO-7684]
Ki [1]: 2 nM

C[C@@H](NC(=O)N1C(=O)[C@H](Cc2ccnc(N)c2)[C@H]1C(=O)O)C1CCCCC1 [FRUNEXIAN]
IC50 [21]: > 4800 nM | IC50 [22]: 7.1 nM | IC50 [23]: > 20000 nM | half-life [24]: 0.75 h
